From the pKa sets of Baltruschat and Czodrowski (2020)

Settings: acidic group

In order of falling pKa:
1. Nc1c2[n-]cnc2nc[n+]1[O-]  13
2. Cc1cc(C(C)(C)C)c(O)c(C(C)(C)C)c1  12.6
3. CN1Cc2[nH]cnc2N(C)C1=O  11.2
4. CN(C)c1ccc(C(=S)Nc2ccccc2)cc1  11.2
5. O/N=C(/Cl)c1ccccc1  9.8
6. CC/N=C(\N=[N+]=[N-])c1ccccc1O  9.4
7. Cc1csc(-c2cccc(NS(=O)(=O)c3ccc(N)cc3)c2)n1  9.2
8. Nc1ccc(S(=O)(=O)Nc2ccc(N)cn2)cc1  8.47
9. CN(C)C(=O)CS  8.1
10. CN(C)C(=O)/C=C(\O)c1ccncc1  7.32
11. On1nnc2ccc(C(F)(F)F)cc21  3.97
12. CC(=O)N1CS(=O)C[C@H]1C(=O)O (some centres undefined)  2.5
13. [NH3+]C(Cc1c[nH]c2ccccc12)C(=O)O (centres undefined)  2.48
14. Nc1nc[nH+]c2c1ncn2CCOCP(=O)(O)O  1.22

Same assay, conditions: basic group

In order of rising pKa:
1. Nc1nc[nH+]c2c1ncn2CCOCP(=O)(O)O  -0.35
2. C=Cc1c(C)c2cc3[nH+]c(c(CC(=O)OC)c4[nH]c(cc5nc(cc1[nH]2)C(C)=C5CC)c(C)c4C(=O)NCC)[C@@H](CCC(=O)OC)[C@@H]3C  0
3. [NH3+]c1ccc(-c2cnc(-c3ccccc3)o2)cc1  0.5
4. NC(=[NH2+])Nc1nccc(-c2csc(N)n2)n1  2.7
5. CCOC(=O)c1cnc(N(C)C)s1  2.77
6. CCNc1nnc(-c2ccccc2)s1  3
7. CN[C@@H]1[C@@H](C)[C@@H]1[NH2+]C  3.68
8. C[C@H]1C[NH2+][C@@H](C)CN1  5.23
9. [S-]c1cnc2cncnc2n1  5.5
10. CN1CCCCN1C  6.66
11. CN=C1C(C)(C)c2ccccc2C1(C)C  7
12. CCC(=O)O[C@@]1(c2ccccc2)CCN(C)C[C@H]1C  8.66
13. CN(C)CCCNc1ccnc2ccccc12  8.85
14. NCC=C(Cl)Cl  9.3
15. NCCc1ccc([O-])cc1  10.4
